The text below walks through data of PubChem BioAssay AID1134 (Emory University Molecular Libraries Screening Center, 2008).

Test [1] concerns the target Ubiquitin carboxyl-terminal hydrolase BAP1 (Homo sapiens) (UniProt Q92560). Briefly: BAP1 inhibitor potency and UCH-L1 selectivity, dose response, selectivity assay, biochemical, ubiquitin-rhodamine110-glycine substrate (AID 1134). Particulars: recombinant BAP1, ubiquitin-rhodamine110 cleavage fluorescence kinetic.
Experiment in test [2]: as above
The settings on record: recombinant BAP1, ubiquitin-rhodamine110 cleavage fluorescence kinetic; measured here: UCH-L1 counter-screen IC50. A general note: Counterscreens check selectivity or assay interference.

SMILES strings stand for the structures. A value given as a limit tells only on which side of the number the result lay.

Sequence of Ubiquitin carboxyl-terminal hydrolase BAP1 (Homo sapiens) (Q92560 whole entry, looked up): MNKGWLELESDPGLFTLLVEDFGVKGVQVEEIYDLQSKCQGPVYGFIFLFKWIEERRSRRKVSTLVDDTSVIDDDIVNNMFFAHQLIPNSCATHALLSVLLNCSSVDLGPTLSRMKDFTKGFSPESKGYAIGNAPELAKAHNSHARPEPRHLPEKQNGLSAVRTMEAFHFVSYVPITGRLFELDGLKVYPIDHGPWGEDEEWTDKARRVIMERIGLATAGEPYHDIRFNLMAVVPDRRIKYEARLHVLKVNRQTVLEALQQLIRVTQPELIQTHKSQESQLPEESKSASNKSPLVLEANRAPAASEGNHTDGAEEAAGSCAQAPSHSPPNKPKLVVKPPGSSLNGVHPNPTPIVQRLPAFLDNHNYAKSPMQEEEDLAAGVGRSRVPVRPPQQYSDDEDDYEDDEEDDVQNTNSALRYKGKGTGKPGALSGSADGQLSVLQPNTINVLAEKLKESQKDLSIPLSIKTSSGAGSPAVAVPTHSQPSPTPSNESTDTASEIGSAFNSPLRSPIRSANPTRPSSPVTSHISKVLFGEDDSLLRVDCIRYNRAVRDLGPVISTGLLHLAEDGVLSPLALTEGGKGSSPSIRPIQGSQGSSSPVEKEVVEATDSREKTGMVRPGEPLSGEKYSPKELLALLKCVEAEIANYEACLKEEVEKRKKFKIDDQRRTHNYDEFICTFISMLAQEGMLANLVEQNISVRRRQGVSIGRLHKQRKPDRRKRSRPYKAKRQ

As a reminder, the IC50 is the midpoint of a concentration-inhibition curve. With `Cc1sc(NC(=O)CSc2nnc(-c3ccc(N)cc3)o2)c(C#N)c1-c1ccc(F)cc1`, the IC50 in test [1] is 40.1 µM.

Take `Cc1ccccc1Nc1nnc(SCC(=O)NCc2ccco2)s1`: the IC50 in test [1] is 17.4 µM.

`Cc1sc(NC(=O)CSc2nnc(N3CCOCC3)o2)c(C#N)c1-c1ccc(F)cc1`: the IC50 in test [1] is 16.8 µM.

Take `COC(=O)c1c(NC(=O)CSc2nnc(-c3ccc(O)cc3)o2)sc(C)c1-c1ccc(F)cc1`: the IC50 in test [1] was 6.07 µM.

For the compound `Cc1sc(NC(=O)CSc2n[nH]c(-c3ccc(O)cc3)n2)c(C#N)c1-c1ccc(F)cc1`, the results for the IC50 in test [1] and in test [2] were 2.19 µM and 10.1 µM, respectively.

For the compound `Cc1sc(NC(=O)CSc2nnc(Cc3ccc(Cl)cc3)o2)c(C#N)c1-c1ccc(F)cc1`, the half-maximal inhibitory concentration (IC50) in test [1] was 6.22 µM.

As for `Cc1sc(NC(=O)CSc2nnc(-c3ccc(Cl)nc3)o2)c(C#N)c1-c1ccc(F)cc1`, the values for the IC50 in test [1] and in test [2] were 2.81 µM and 13.6 µM, respectively.

As to `O=C(CSc1nnc(-c2ccc(O)cc2)o1)Nc1cc(-c2ccc(F)cc2)[nH]n1`, in test [1], the IC50 is 14.4 µM.

Regarding `Cc1sc(NC(=O)CSc2nnc(-c3ccc(O)cc3)o2)c(C#N)c1-c1ccc(Cl)cc1Cl`, the IC50 in test [1] is 3.7 µM.

For `COC(=O)c1c(NC(=O)CSc2nnc(-c3ccc(Cl)cc3)o2)sc(C)c1-c1ccc(F)cc1`, the IC50 in test [1] is 3.59 µM; in test [2] it was 23.6 µM.

As for `Cc1sc(NC(=O)CSc2nnc(-c3ccc(Cl)cc3)o2)c(C#N)c1-c1ccc(Cl)cc1Cl`, the values for the 50% inhibitory concentration (IC50) in test [1] and in test [2] were 1.15 µM and 13.8 µM, respectively.

In the case of `Cc1sc(NC(=O)CSc2n[nH]c(-c3ccc(O)cc3)n2)c(C#N)c1C`, the IC50 in test [1] is 31.1 µM.

Take `Cc1ccc(-c2c(C)sc(NC(=O)CSc3nnc(-c4ccc(Cl)cc4)o3)c2C#N)cc1C`: the IC50 in test [1] is 5.19 µM; in test [2] it was 7.55 µM.

As to `Cc1sc(NC(=O)CSc2nnc(-c3ccc(Cl)cc3)o2)c(C(N)=O)c1-c1ccc(F)cc1`, the IC50 in test [1] is 3.88 µM.

In the case of `Cc1sc(NC(=O)CSc2nccc(-c3ccc(Cl)cc3)n2)c(C#N)c1-c1ccc(F)cc1`, the concentration for half-maximal inhibition (IC50) in test [1] is 1.58 µM; in test [2], 47.6 µM.

As for `Cc1sc(NC(=O)CSc2nccc(-c3ccc(Cl)cc3)n2)c(C#N)c1C`, the IC50 in test [1] is 4.82 µM.

With `CCOC(=O)c1cnc(SCC(=O)Nc2sc(C)c(C)c2C#N)nc1N`, the IC50 is 2.54 µM in test [1] and 44.3 µM in test [2].

With `Cc1sc(NC(=O)CSc2nnc(-c3ccc(Br)cc3)o2)c(C#N)c1-c1ccc(F)cc1`, the results for the IC50 in test [1] and in test [2] were 0.9 µM and 16.9 µM, respectively.

Consider `O=C(CSc1nnc(-c2ccc(Cl)cc2)o1)Nc1cc(-c2ccc(F)cc2)[nH]n1`, for which the values for the half-inhibitory concentration (IC50) in test [1] and in test [2] were 0.86 µM and 51.9 µM, respectively.

As to `Cc1sc(NC(=O)CSc2nnc(-c3ccc(O)cc3)o2)c(C#N)c1-c1ccc(F)cc1`, the IC50 in test [1] is 15.3 µM.

For the compound `Cc1sc(NC(=O)CSc2nnc(-c3cccnc3)o2)c(C#N)c1-c1ccc(F)cc1`, the IC50 in test [1] was 35.4 µM.

As for `Cc1sc(NC(=O)CSc2nnc(-c3ccc(Cl)cc3)o2)c(C#N)c1-c1ccc(F)cc1`, the IC50 is 0.81 µM in test [1] and 21.2 µM in test [2].

With `Cc1sc(NC(=O)CSc2nnc(-c3ccc(O)cc3O)o2)c(C#N)c1-c1ccc(F)cc1`, the IC50 in test [1] is 5.62 µM.

Take `O=C(NCc1ccco1)c1cc2nc(-c3ccc4c(c3)OCO4)cc(C(F)(F)F)n2n1`: the IC50 in test [1] was 15.4 µM.

In the case of `Cc1sc(NC(=O)CSc2nnc(-c3ccc(O)cc3)o2)c(C#N)c1-c1ccc(CC(C)C)cc1`, in test [1], the IC50 is 4.77 µM.

As for `Cc1sc(NC(=O)CSc2nnc(-c3ccc(I)cc3)o2)c(C#N)c1-c1ccc(F)cc1`, the results for the IC50 in test [1] and in test [2] were 2.76 µM and greater than 100 µM, respectively.

Turning to `Cc1sc(NC(=O)CSc2nnc(-c3ccc(Cl)cc3)o2)c(C#N)c1-c1ccc(CC(C)C)cc1`, the IC50 in test [1] was 3.73 µM; in test [2] it was 20.6 µM.

Consider `Cc1ccc(-c2c(C)sc(NC(=O)CSc3nnc(-c4ccc(F)cc4)o3)c2C#N)cc1C`, for which the IC50 in test [1] is 3.95 µM; in test [2], 26 µM.

Consider `Cc1sc(NC(=O)CSc2nnc(-c3ccc(Cl)cc3)o2)c(C#N)c1-c1ccccc1`, for which the results for the IC50 in test [1] and in test [2] were 1.88 µM and 13.7 µM, respectively.

`Cc1sc(NC(=O)CSc2nnc(-c3ccncc3)o2)c(C#N)c1-c1ccc(F)cc1`: the IC50 in test [1] is 8.8 µM.

Consider `Cc1ccccc1Nc1nnc(SCC(=O)Nc2sc(C)c(-c3ccc(F)cc3)c2C#N)s1`, for which, in test [1], the IC50 was 8.8 µM.
